Measurements from article PMC6510728, “Efficacy of the novel CDK7 inhibitor QS1189 in mantle cell lymphoma” (Scientific Reports, 2019).
Like-named read-outs stand apart in the source and are kept apart here.

Experiments:
Jeko-1 cells = test: MTT assay, cell viability; format: cell-based; details: Homo sapiens, 72 h, read-out: IC50 values (nM, mean ± S.D.)
Protocol: (§1) The human lymphoma cell lines (Mino, Maver-1, Jeko-1, Z-138, OCI-Ly7, OCI-Ly10, SU-DHL-6, SU-DHL-8, U2932, Daudi, Namalwa, Raji, and Ramos) were purchased from the American Type Culture Collection (ATCC, Manassas, VA, USA) and DSMZ (Braunschweig, Germany). Cells were cultured in RPMI1640 medium containing 10% foetal bovine serum, 100 U/mL penicillin, and […] streptomycin (Invitrogen, Carlsbad, CA, USA) at 37 °C in an atmosphere of 5% CO2. OCI-Ly7 and OCI-Ly10 were cultured in IMDM. Tests for mycoplasma contamination were negative. Ibrutinib and venetocalx were purchased from Selleck Chemicals (Houston, TX, USA).
(§2) Cells (2 × 10^4) were seeded into 96-well sterile plastic plates overnight and then treated with the relevant drugs. After 72 h, 15 μL of MTT solution (5 mg/mL) was added to each well and the plates were incubated for 4 h. Crystalline formazan was solubilized with 100 μL of 10% (w/v) SDS solution for 24 h. Absorbance at 595 nm was read spectrophotometrically using a microplate reader. The results represent at least three independent experiments, and the error bars signify the standard deviation from the mean. The IC50 values were determined using GraphPad Prism software (GraphPad, Inc., La Jolla, CA, USA).

Z-138 cells = test: MTT assay, cell viability; format: cell-based; details: Homo sapiens, 72 h, read-out: IC50 values (nM, mean ± S.D.)
Protocol: as §1, §2

Maver-1 cells = test: MTT assay, cell viability; format: cell-based; details: Homo sapiens, Maver1, 72 h, read-out: IC50 values (nM, mean ± S.D.)
Protocol: as §1, §2

Mino cells = test: MTT assay, cell viability; format: cell-based; details: Homo sapiens, 72 h, read-out: IC50 values (nM, mean ± S.D.)
Protocol: as §1, §2

[1] = tested on: patients with relapsed or refractory MCL; design: method as in PMID 23782157; details: cited from earlier work
[2] = tested on: patients with relapsed or refractory MCL; design: method as in PMID 28095146; details: phase I first-in-human study; cited from earlier work
OCI-Ly10 cells = test: MTT assay, cell viability; format: cell-based; details: Homo sapiens, 72 h, read-out: IC50 values (nM, mean ± S.D.)
Protocol: as §1, §2

SU-DHL-6 cells = test: MTT assay, cell viability; format: cell-based; details: Homo sapiens, 72 h, read-out: IC50 values (nM, mean ± S.D.)
Protocol: as §1, §2

U2932 cells = test: MTT assay, cell viability; format: cell-based; details: Homo sapiens, 72 h, read-out: IC50 values (nM, mean ± S.D.)
Protocol: as §1, §2

[3] = tested on: venetoclax-resistant cells (Mino/VR-1, Mino/VR-2, Maver-1/VR-1, Maver-1/VR-2); test: MTT assay in cells with acquired resistance to venetoclax; format: cell-based, human; details: all resistant cells vs parental Mino and Maver-1, 72 h
Protocol: Maver-1/VR cells were established by chronic, repeated exposure to increasing venetoclax doses up to 1 μM for more than 8 months. Maver-1/VR cells were cloned by single-cell culture, and these resistant sublines were designated as Maver-1/VR-1 and Maver-VR-2. In all studies, resistant cells were cultured in drug-fee medium for >1 week to eliminate the effects of venetoclax. The genetic identity of each subclone with the parental cells was verified by short tandem repeat (STR) analysis conducted at Cosmogenetech (Cosmogenetech co. Ltd., Seoul, Korea) according to established protocols.
as §2

With `C=CC(=O)N1CCC[C@@H](n2nc(-c3ccc(Oc4ccccc4)cc3)c3c(N)ncnc32)C1` [Ibrutinib, ibrutinib] as the molecule, how does the IC50 (Jeko-1 cells) read?
Its IC50 is over 10000 nM.

What about the IC50 (Z-138 cells) of the same molecule?
The IC50 was over 10000 nM.

And the IC50 (Maver-1 cells)?
The IC50 was over 10000 nM.

And the IC50 (Mino cells)?
Its IC50 is over 1000 nM.

What about the “best overall response rate” value [1] of the same molecule?
Its value is 68%.

And the complete response rate [1]?
Its complete response rate is 21%.

And the median progression-free survival [1]?
Its median progression-free survival is 13.9 months.

Which results are given for `CC1(C)CCC(CN2CCN(c3ccc(C(=O)NS(=O)(=O)c4ccc(NCC5CCOCC5)c([N+](=O)[O-])c4)c(Oc4cnc5[nH]ccc5c4)c3)CC2)=C(c2ccc(Cl)cc2)C1` [Venetoclax, venetoclax]?
best overall response rate [2]: 75%; complete response rate [2]: 21%; median progression-free survival [2]: 14 months; IC50 (Jeko-1 cells): > 1000 nM; IC50 (Z-138 cells): > 1000 nM; IC50 (Maver-1 cells): 2.5 ± 0.4 nM; IC50 (OCI-Ly10 cells): 35.3 nM; IC50 (SU-DHL-6 cells): 66.9 nM; IC50 (Mino cells): 275 ± 62.9 nM; IC50 (U2932 cells): 121 nM; fold higher resistance to venetoclax than the parental cells [3]: 10–100 fold
